This note sets out measurements from publication PMC9870890 (Nature Communications, 2023).

Residue numbers refer to the chain shown, from its start. Values joined by “and” are separate entries in the source; they are usually repeats but may differ in a detail not shown here. Equal values may be shown once. Read-outs that look alike come from different tables or passages of the source.

The target of assay [1] is T1, M2R (Homo sapiens, UniProt P08172, M139L/M142L/M1T/M248L/M296L/M368L/M456T/M45L).
T1 construct: We used a full-length construct M2RFL△8 M for complexing with miniGαo and β-arrestin-1; FLAG (N); 8xHis (C); made in house; host or cells: Sf9 insect cells
T1 sequence (P08172 1-466 M1T/M45L/M139L/M142L/M248L/M296L/M368L/M456T): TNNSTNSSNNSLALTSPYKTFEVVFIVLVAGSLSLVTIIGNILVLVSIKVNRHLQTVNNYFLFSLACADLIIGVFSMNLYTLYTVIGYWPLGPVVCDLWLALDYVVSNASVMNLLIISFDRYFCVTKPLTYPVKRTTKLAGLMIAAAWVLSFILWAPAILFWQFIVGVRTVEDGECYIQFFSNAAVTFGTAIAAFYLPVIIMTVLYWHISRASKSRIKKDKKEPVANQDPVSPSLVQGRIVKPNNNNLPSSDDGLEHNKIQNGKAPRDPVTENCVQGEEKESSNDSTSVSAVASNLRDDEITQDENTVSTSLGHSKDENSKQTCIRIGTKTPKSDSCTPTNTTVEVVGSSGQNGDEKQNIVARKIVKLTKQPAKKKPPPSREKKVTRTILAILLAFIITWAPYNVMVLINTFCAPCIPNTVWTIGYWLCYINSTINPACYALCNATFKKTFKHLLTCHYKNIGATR
It counts as biochemical. Conditions: 100 μM Ixo or 1 mM carbachol. The method, then: We used a full-length construct M2RFL△8 M for complexing with miniGαo and β-arrestin-1. The receptor was purified as described above for cryo-EM sample. Excess GRK2 was mixed with the M2R in a buffer composed of 20 mM HEPES pH 7.5, 100 mM NaCl, 0.01% MNG, 0.003% CHS, 500 μM ATP in the presence and absence of 100 μM Ixo or 1 mM carbachol to initiate the phosphorylation at room temperature. The extent of phosphorylation at various time points (from 0 to 120 min) was evaluated by Pro-Q and Coomassie blue staining. The final phosphorylated receptor (Ixo-bound) was further evaluated by ion-exchange chromatography. The complex formation test was performed as follows: unphosphorylated Ixo-bound M2RFL△8 M or phosphorylated M2RFL△8 M was mixed with miniGαo or β-arrestin-1, respectively and incubated on ice for 30 min. The receptor alone or mixed complex sample were then analyzed by SEC against 20 mM HEPES pH 7.5, 100 mM NaCl, 0.01% MNG, 0.003% CHS in the presence of 10 μM Ixo.

The target in assay [2] is T2, M2R (Homo sapiens, UniProt P08172).
T2 sequence (P08172 1-466): T1 sequence (P08172 1-466 M1T/M45L/M139L/M142L/M248L/M296L/M368L/M456T) with T1M, L45M, L139M, L142M, L248M, L296M, L368M, T456M

In assay [3] the target is T2, M2R. In words: cell-based. Set-up: expressed in transfected cells; host or cells: HEK 293T. Conditions: for Emax: HEK-293T. As to the method: Determination of β-arrestin-2 recruitment was performed applying the PathHunter assay (DiscoverX, Birmingham, U.K.) which is based on fragment complementation of β-galactosidase as described. In detail, HEK293T cells were transfected with the flag-tagged M2 receptor carrying the PKA fragment for enzyme complementation and transferred into 384-well micro plates. […] Determination of chemoluminescence was done with a Clariostar plate reader (BMG, Ortenberg, Germany). […] Normalized curves from three to five individual experiments each done in duplicate were analyzed by non-linear regression applying the algorithms in Prism 8.0 (GraphPad, San Diego, CA) to get dose-response curves representing average EC50 and Emax value.

Assay [4] deals with T3, M2R and GoA (Homo sapiens, UniProt P08172).
T3 construct: FLAG (N); 8xHis (C); made in house; host or cells: Sf9 insect cells (receptor)
The assay can be described thus: GTPase-Glo assay (GTP turnover) with purified M2R and GoA. Conditions: purified wild-type receptor and G-protein. In kind it is biochemical. The method, then: The receptors for GTPase-Glo^TM assay were expressed and purified as described above and frozen at −80 °C before use. […] The GTPase reaction was incubated at room temperature (22–25 °C) for different times (15–90 min). […] After incubation, 5 μL reconstituted 1xGTPase-Glo^TM Reagent (Promega) was added to the completed GTPase reaction, mixed briefly and incubated with shaking for 30 min at room temperature (22–25 °C) to convert the remaining GTP into ATP. Then 10 μL Detection Reagent (Promega) was added to the system and incubated for 5-10 min at room temperature (22–25 °C) to convert the ATP into luminescent signals. Luminescence intensity was quantified using a Multimode Plate Reader (PerkinElmer) luminescence counter.

For assay [5], the target named is M2 muscarinic receptor (M2R), wild type (human) (UniProt P08172).

As for `C[N+](C)(C)CCOC(N)=O` [Carbachol, carbachol], the Phosphorylation intensity in assay [1] (Time 5 min) came to 334.849; in assay [1] (Time 10 min), 686.698; in assay [1] (Time 15 min), 1559.5; in assay [1] (Time 30 min), 4508.03; in assay [1] (Time 60 min), 11137.8; in assay [1] (Time 120 min), 15286.

For `Cc1c(Cl)c(OCC(=O)N2CCN(C)CC2)nc2sc(C(=O)NC3CC3)c(N)c12` [LY2119620], the “activation of the receptor by the modulator on its own” value in assay [2] is listed as “can activate the receptor on its own with low efficacy”. Moreover, the “IP accumulation as % max effect of acetylcholin” value in assay [2] (LY2119620 alone log [M] -4) is 59.0% and 70.9% and 76.8% and 52.3% and 51.5% and 62.7% and 67.1%; in assay [2] (LY2119620 alone log [M] -10), 3.3% and -1.8% and -2.5% and -3.4% and 3.1%. In addition, the “inhibition of maximal G-protein activation of both orthosteric agonists” value in assay [2] (high concentrations of LY2119620) is reported as ~ 10%. For the same compound, the Emax was 46.3% in assay [3] (read-out: arrestin recruitment as % max effect of acetylcholin, LY2119620 log [M] 3-4); 52.5% in assay [3] (read-out: arrestin recruitment as % max effect of acetylcholin, LY2119620 log [M] 3-5); 42.1% in assay [3] (read-out: arrestin recruitment as % max effect of acetylcholin, LY2119620 log [M] -5). In addition, the “arrestin recruitment as % max effect of acetylcholin” value in assay [3] (LY2119620 log [M] 3-4) is 48.9%; in assay [3] (LY2119620 log [M] 3-5), 50.0% and 48.5%; in assay [3] (LY2119620 log [M] 3-7) it was -0.0286% and 2.4%; in assay [3] (LY2119620 log [M] -4) it was 58.7% and 38.0% and 68.2% and 60.8% and 51.7%; in assay [3] (LY2119620 log [M] -5), 33.4% and 43.9% and 30.6% and 32.3%; in assay [3] (LY2119620 log [M] -6), 10.6% and 7.5% and 6.2% and 2.4% and 3.8%. Further, the “arrestin recruitment as % max effect of acetylcholin” value was 2.1% and 1.5% and 2.0% and 0.9% and 2.9% in assay [3] (LY2119620 log [M] -7); 0.6% and 0.5% and 0.9% and -0.171% and -0.548% in assay [3] (LY2119620 log [M] -8); 1.3% and -0.4% and -1.2% and -3.6% in assay [3] (LY2119620 log [M] -9). Further, the “effect on GTP-turnover for both ACh and Ixo” value in assay [4] was “significant inhibitory effects”.

As for “heterotrimeric GoA protein (from UniProt P09471 1-354; P62873 2-340; P59768 1-71) (complex)”, in assay [5], the increase of the affinity of ACh in [3H]-NMS competition binding on M2R in HDL particles on addition of GoA turned out to be 65 fold and the increase of the affinity of Ixo in [3H]-NMS competition binding on M2R in HDL particles on addition of GoA was determined as 27 fold.
